Results published in US6979686B1, “Substituted pyrazoles as p38 kinase inhibitors” (Pharmacia Corporation, priority 2001, dated 2005).

These compounds were tested against T1, human p38 kinase alpha (Homo sapiens, UniProt Q16539) (assay: p38 kinase in vitro assay, phosphorylation of biotinylated PHAS-I with 32P-ATP). Conditions: @ 1.0 uM.
T1 construct: GST (N, cleaved yes); made in house; host or cells: E. coli DH10B
Type: biochemical

T1 sequence (Q16539 whole entry): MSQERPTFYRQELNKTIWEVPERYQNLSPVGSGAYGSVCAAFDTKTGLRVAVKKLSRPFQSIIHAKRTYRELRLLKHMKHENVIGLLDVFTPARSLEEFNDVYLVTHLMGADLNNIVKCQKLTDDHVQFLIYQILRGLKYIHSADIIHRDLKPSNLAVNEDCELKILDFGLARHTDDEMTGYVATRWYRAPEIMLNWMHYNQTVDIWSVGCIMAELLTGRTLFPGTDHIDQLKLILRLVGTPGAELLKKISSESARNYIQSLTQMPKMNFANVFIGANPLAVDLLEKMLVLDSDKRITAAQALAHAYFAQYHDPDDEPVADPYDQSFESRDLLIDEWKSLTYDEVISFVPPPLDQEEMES

First: CCCOC(=O)NCCc1[nH]nc(-c2ccc(F)cc2)c1-c1ccncc1 [Example B-1053]
Second: CC(C)OC(=O)NCCc1[nH]nc(-c2ccc(F)cc2)c1-c1ccncc1 [Example B-1057]
The “P38 alpha kinase % inhib @ conc. (uM)” value of the first is lower: 78.0% @ for the first, 85.0% @ for the second.

Compared with `O=C(NCCc1[nH]nc(-c2ccc(F)cc2)c1-c1ccncc1)NCc1ccccc1` [Example B-1031], `C[C@H](NC(=O)NCCc1[nH]nc(-c2ccc(F)cc2)c1-c1ccncc1)c1ccccc1` [Example B-1042] is higher in “P38 alpha kinase % inhib @ conc. (uM)” value: 69.0% @ for the first, 79.0% @ for the second.

First: COc1ccc(S(=O)(=O)NCCc2[nH]nc(-c3ccc(F)cc3)c2-c2ccncc2)cc1OC [Example B-1028]
Second: O=S(=O)(Cc1ccccc1)NCCCc1[nH]nc(-c2ccc(F)cc2)c1-c1ccncc1 [Example B-1194]
The “P38 alpha kinase % inhib @ conc. (uM)” value of the first is lower: 70.0% @ for the first, 87.0% @ for the second.

Compared with `CN(C)C(=O)NCCc1[nH]nc(-c2ccc(F)cc2)c1-c1ccncc1` [Example B-1035], `O=C(NCCc1[nH]nc(-c2ccc(F)cc2)c1-c1ccncc1)Nc1ccccc1F` [Example B-1038] is lower in “P38 alpha kinase % inhib @ conc. (uM)” value: 75.0% @ for the first, 57.0% @ for the second.

Compared with `Cc1ccc(C(=O)NCCCc2[nH]nc(-c3ccc(F)cc3)c2-c2ccncc2)cc1` [Example B-1179], `O=C(NCCCc1[nH]nc(-c2ccc(F)cc2)c1-c1ccncc1)c1ccc(F)c(F)c1F` [Example B-1174] is lower in “P38 alpha kinase % inhib @ conc. (uM)” value: 86.0% @ for the first, 80.0% @ for the second.

`CCOC(=O)C(CCSC)NC(=O)NCCc1[nH]nc(-c2ccc(F)cc2)c1-c1ccncc1` (stereo not drawn) [Example B-0935] and `O=S(=O)(C=Cc1ccccc1)NCCCc1[nH]nc(-c2ccc(F)cc2)c1-c1ccncc1` [Example B-1193] are the same in “P38 alpha kinase % inhib @ conc. (uM)” value: 69.0% @ for the first, 69.0% @ for the second.

Going from `O=S(=O)(NCCCc1[nH]nc(-c2ccc(F)cc2)c1-c1ccncc1)c1ccccc1F` [Example B-1197] to `Cc1cccc(C)c1NC(=O)NCCCc1[nH]nc(-c2ccc(F)cc2)c1-c1ccncc1` [Example B-1216], the “P38 alpha kinase % inhib @ conc.” value rises from 77.0% @ to 88.0% @.

Same assay, conditions: @ 1.0 uM; read-out: P38 alpha kinase % inhib @ conc.

`CC(C)c1cc(C(C)C)c(C(=O)NCc2[nH]nc(-c3ccc(F)cc3)c2-c2ccncc2)c(C(C)C)c1` [Example B-0030] was tested, and the inhibition at 1 µM was 92%.

Same assay, conditions: @ 10.0 uM

First: Cc1c(-c2ccncc2)c(-c2ccc(F)cc2)nn1CC(=O)N1CCCCC1 [Example B-2401]
Second: CCN(CC)C1CCN(C(=O)Cn2nc(-c3ccc(F)cc3)c(-c3ccncc3)c2C)C1 (stereo not drawn) [Example B-2391]
The “P38 alpha kinase IC50, uM or % inhib @ conc. (uM): % inhib” value (from here on “P38 alpha kinase IC50 … % inhib”) of the first is higher: 78.0% @ for the first, 40.0% @ for the second.

Going from `Cc1c(-c2ccncc2)c(-c2ccc(F)cc2)nn1CC(=O)NCC(=O)Nc1ccccc1` [Example B-2441] to `CCCCCCOc1ccc(NC(=O)Cn2nc(-c3ccc(F)cc3)c(-c3ccncc3)c2C)cc1` [Example B-2436], the “P38 alpha kinase IC50 … % inhib” value falls from 86.0% @ to 80.0% @.

Going from `Cc1c(-c2ccncc2)c(-c2ccc(F)cc2)nn1CC(=O)N1CCC(N(C)C(=O)OC(C)(C)C)C1` (stereo not drawn) [Example B-2413] to `Cc1c(-c2ccncc2)c(-c2ccc(F)cc2)nn1CC(=O)N1Cc2ccsc2CC1c1ccc(Cl)cc1` (stereo not drawn) [Example B-2410], the “P38 alpha kinase IC50 … % inhib” value falls from 75.0% @ to 33.0% @.

Going from `COC(=O)C(NC(=O)Cn1nc(-c2ccc(F)cc2)c(-c2ccncc2)c1C)C(C)C` (stereo not drawn) [Example B-2365] to `CCN(CC)CC(C)NC(=O)Cn1nc(-c2ccc(F)cc2)c(-c2ccncc2)c1C` (stereo not drawn) [Example B-2337], the “P38 alpha kinase % inhib @ conc.” value falls from 82.0% @ to 46.0% @.

First: CCOC(=O)CC(NC(=O)Cn1nc(-c2ccc(F)cc2)c(-c2ccncc2)c1C)C(=O)OCC (stereo not drawn) [Example B-2352]
Second: CCCC(CCC)NC(=O)Cn1nc(-c2ccc(F)cc2)c(-c2ccncc2)c1C [Example B-2356]
The “P38 alpha kinase % inhib @ conc.” value of the first is lower: 37.0% @ for the first, 77.0% @ for the second.

For `CCN(Cc1c(F)cccc1Cl)C(=O)Cn1nc(-c2ccc(F)cc2)c(-c2ccncc2)c1C` [Example B-2367], the “P38 alpha kinase % inhib @ conc.” value was 46.0% @.

Same assay, conditions: in vitro P38-alpha kinase inhibition; read-out: P38 alpha kinase IC50

Compared with `O=C(NCCc1[nH]nc(-c2ccc(F)cc2)c1-c1ccncc1)c1ccc(F)c(F)c1` [Example B-1129], `O=C(NCCc1[nH]nc(-c2ccc(F)cc2)c1-c1ccncc1)c1cccc(Cl)c1` [Example B-1153] is 2.1-fold higher in IC50: 1070 nM for the first, 2220 nM for the second.

Going from `O=C(O)c1ccccc1S(=O)(=O)NCCc1[nH]nc(-c2ccc(F)cc2)c1-c1ccncc1` [Example B-1065] to `O=S(=O)(NCCc1[nH]nc(-c2ccc(F)cc2)c1-c1ccncc1)c1cccc2ccccc12` [Example B-1069], the IC50 falls from 560 nM to 220 nM (2.5-fold).

Going from `CC(NS(=O)(=O)c1cccc2cccnc12)c1[nH]nc(-c2ccc(F)cc2)c1-c1ccncc1` (stereo not drawn) [Example B-0620] to `O=S(=O)(NCCc1[nH]nc(-c2ccc(F)cc2)c1-c1ccncc1)c1cccc2cccnc12` [Example B-1071], the IC50 falls from 1590 nM to less than 100 nM.

Compared with `O=C(NCCc1[nH]nc(-c2ccc(F)cc2)c1-c1ccncc1)c1cc(F)c(F)cc1F` [Example B-1149], `O=C(NCCc1[nH]nc(-c2ccc(F)cc2)c1-c1ccncc1)c1ccccc1F` [Example B-1150] is 3.3-fold lower in IC50: 1550 nM for the first, 470 nM for the second. The second is the more potent here.

First: O=C(Cc1cccs1)NC(Cc1ccccc1)c1[nH]nc(-c2ccc(F)cc2)c1-c1ccncc1 (stereo not drawn) [Example B-0745]
Second: O=C(NC(Cc1ccccc1)c1[nH]nc(-c2ccc(F)cc2)c1-c1ccncc1)c1ccc(I)cc1 (stereo not drawn) [Example B-0807]
The IC50 of the first is 1.8-fold lower: 6000 nM for the first, 10800 nM for the second.

Compared with `O=S(=O)(NCCc1[nH]nc(-c2ccc(F)cc2)c1-c1ccncc1)c1cccc2nonc12` [Example B-1105], `CCc1ccc(S(=O)(=O)NCCc2[nH]nc(-c3ccc(F)cc3)c2-c2ccncc2)cc1` [Example B-1088] is higher in IC50: less than 100 nM for the first, 730 nM for the second.

Compared with `O=S(=O)(NCCc1[nH]nc(-c2ccc(F)cc2)c1-c1ccncc1)c1cc(S(=O)(=O)c2ccccc2)cs1` [Example B-1112], `O=S(=O)(NCCc1[nH]nc(-c2ccc(F)cc2)c1-c1ccncc1)c1ccc(C(F)(F)F)cc1` [Example B-1087] is 12-fold lower in IC50: 580 nM for the first, 50 nM for the second. The second is the more potent here.

First: CC1(C)C2CCC1(S(=O)(=O)NCCc1[nH]nc(-c3ccc(F)cc3)c1-c1ccncc1)C(=O)C2 (stereo not drawn) [Example B-1100]
Second: Cc1cc(C)c(S(=O)(=O)NCCc2[nH]nc(-c3ccc(F)cc3)c2-c2ccncc2)c(C)c1 [Example B-1067]
The IC50 of the first is 7.3-fold lower: 220 nM for the first, 1600 nM for the second. The first is the more potent here.

First: Cc1cc(C)c(S(=O)(=O)NC(C)c2[nH]nc(-c3ccc(F)cc3)c2-c2ccncc2)c(C)c1 (stereo not drawn) [Example B-0616]
Second: CC(NS(=O)(=O)c1ccccc1S(C)(=O)=O)c1[nH]nc(-c2ccc(F)cc2)c1-c1ccncc1 (stereo not drawn) [Example B-0666]
The IC50 of the first is 2.2-fold higher: 380 nM for the first, 170 nM for the second.

Compared with `Cc1ccc(S(=O)(=O)NC(Cc2ccccc2)c2[nH]nc(-c3ccc(F)cc3)c2-c2ccncc2)cc1` (stereo not drawn) [Example B-0766], `O=S(=O)(NC(Cc1ccccc1)c1[nH]nc(-c2ccc(F)cc2)c1-c1ccncc1)c1ccccc1` (stereo not drawn) [Example B-0708] is 2.2-fold higher in IC50: 950 nM for the first, 2100 nM for the second.

Going from `CCCCS(=O)(=O)NC(Cc1ccccc1)c1[nH]nc(-c2ccc(F)cc2)c1-c1ccncc1` (stereo not drawn) [Example B-0761] to `CC(C)S(=O)(=O)NC(Cc1ccccc1)c1[nH]nc(-c2ccc(F)cc2)c1-c1ccncc1` (stereo not drawn) [Example B-0709], the IC50 rises from less than 100 nM to 840 nM. The first is the more potent here.

Going from `Cc1ccc(S(=O)(=O)NC(Cc2ccccc2)C(=O)NC(Cc2ccccc2)c2[nH]nc(-c3ccc(F)cc3)c2-c2ccncc2)cc1` (stereo not drawn) [Example B-0827] to `Cc1ccc(S(=O)(=O)NC(Cc2ccccc2)c2[nH]nc(-c3ccc(F)cc3)c2-c2ccncc2)cc1` (stereo not drawn) [Example B-0721], the IC50 falls from 15600 nM to 3800 nM (4.1-fold).

Compared with `CC(NS(=O)(=O)c1ccc(C(F)(F)F)cc1)c1[nH]nc(-c2ccc(F)cc2)c1-c1ccncc1` (stereo not drawn) [Example B-0636], `CNC(=O)CCC(NC(=O)c1ccccc1I)c1[nH]nc(-c2ccc(F)cc2)c1-c1ccncc1` (stereo not drawn) [Example B-0861] is higher in IC50: less than 100 nM for the first, 1320 nM for the second.

Compared with `Cc1ccc(C(=O)NC(Cc2ccccc2)c2[nH]nc(-c3ccc(F)cc3)c2-c2ccncc2)cc1` (stereo not drawn) [Example B-0850], `O=C(Cc1cccs1)NC(Cc1ccccc1)c1[nH]nc(-c2ccc(F)cc2)c1-c1ccncc1` (stereo not drawn) [Example B-0790] is 1.8-fold lower in IC50: 1810 nM for the first, 1000 nM for the second.

Same assay, conditions: in vitro P38-alpha kinase; read-out: P38 alpha kinase IC50

First: Cc1c(-c2ccncc2)c(-c2ccc(F)cc2)nn1CC(=O)NCCCCc1ccccc1 [Example B-2300]
Second: Cc1c(-c2ccncc2)c(-c2ccc(F)cc2)nn1CC(=O)NCC(c1ccccc1)c1ccccc1 [Example B-2277]
The IC50 of the first is 210-fold lower: 70 nM for the first, 14900 nM for the second.

`O=S(=O)(NCCCc1[nH]nc(-c2ccc(F)cc2)c1-c1ccncc1)c1ccccc1Cl` [Example B-1268] and `O=S(=O)(NCCCc1[nH]nc(-c2ccc(F)cc2)c1-c1ccncc1)c1cccc2nonc12` [Example B-1282] cannot be ordered by IC50: less than 100 nM for the first, less than 100 nM for the second.

Going from `O=C(NCCCc1[nH]nc(-c2ccc(F)cc2)c1-c1ccncc1)c1c(Cl)cccc1Cl` [Example B-1348] to `O=C(NCc1[nH]nc(-c2ccc(F)cc2)c1-c1ccncc1)c1c(Cl)cccc1Cl` [Example B-0294], the IC50 rises from 9 nM to 680 nM (76-fold).

Compared with `O=S(=O)(c1c(Cl)cccc1Cl)N1CCC(c2[nH]nc(-c3ccc(F)cc3)c2-c2ccncc2)CC1` [Example B-1451], `CS(=O)(=O)c1ccc(S(=O)(=O)N2CCC(c3[nH]nc(-c4ccc(F)cc4)c3-c3ccncc3)CC2)cc1` [Example B-1476] is 61-fold lower in IC50: 2880 nM for the first, 47 nM for the second. The second is the more potent here.

First: O=S(=O)(NCCCc1[nH]nc(-c2ccc(F)cc2)c1-c1ccncc1)c1ccc(-c2ccccn2)s1 [Example B-1288]
Second: O=S(=O)(NCCCc1[nH]nc(-c2ccc(F)cc2)c1-c1ccncc1)c1ccc(S(=O)(=O)c2ccccc2)s1 [Example B-1293]
The IC50 of the first is 2.1-fold lower: 150 nM for the first, 310 nM for the second. The first is the more potent here.

First: COc1ccc(Br)cc1S(=O)(=O)NCCCc1[nH]nc(-c2ccc(F)cc2)c1-c1ccncc1 [Example B-1279]
Second: CCCCOc1ccc(S(=O)(=O)NCCCc2[nH]nc(-c3ccc(F)cc3)c2-c2ccncc2)cc1 [Example B-1261]
The IC50 of the first is lower: less than 100 nM for the first, 740 nM for the second. The first is the more potent here.

Going from `Cc1cccc(C(=O)NCCCc2[nH]nc(-c3ccc(F)cc3)c2-c2ccncc2)c1` [Example B-1344] to `NS(=O)(=O)c1ccc(CCNC(=O)NCCCc2[nH]nc(-c3ccc(F)cc3)c2-c2ccncc2)cc1` [Example B-1307], the IC50 falls from 14 nM to 9 nM (1.6-fold).

With `Cc1c(-c2ccncc2)c(-c2ccc(F)cc2)nn1CC(=O)NCCCN1CCCC1=O` [Example B-2280] the IC50 was 400 nM.
